# Values quoted from earlier work as cited in PubChem BioAssay AID1259409 (Chemical Carcinogenesis Research Information System (CCRIS), 2018).
# Values joined by “and” are separate entries in the source; they are usually repeats but may differ in a detail not shown here. Equal entries are not always repeated.
# System: rodent chemically induced tumor inhibition, incidence and multiplicity
# Experiment: CCRIS tumor inhibitor studies
# Conditions: for tumour outcome (control, treated, inhibition, significance): Route [Inhibitor]: ORAL, Promoter: NONE USED
# Description: The CCRIS database contains chemical records with carcinogenicity, mutagenicity, tumor promotion, and tumor inhibition test results. It was developed by the National Cancer Institute (NCI). Data are derived from studies cited in primary journals, current awareness tools, NCI reports, and other sources. Test results have been reviewed by experts in carcinogenesis and mutagenesis.
# CCRIS provides historical information from the years 1985 - 2011. It is no longer updated.
# This is an archive assay for CCRIS tumor inhibitor studies.
structure (smiles),measurement,setting,value
COc1ccc(O)cc1C(C)(C)C,"tumour outcome (control, treated, inhibition, significance)","Carcinogen: BENZO[A]PYRENE, 50-32-8, Dose [Inhibitor]: 0.03 MMOL/G OF DIET DAILY STARTING 7 D BEFORE AND CONTINUING THROUGH 3 D AFTER CARCINOGEN TREATMENT FOLLOWED BY OBSERVAT, Species: MOUSE, Strain/Sex: ICR/FEMALE, Target Tissue: Type of Lesion: FORESTOMACH: NEOPLASM, Dose [Carcinogen]: 1 MG IN 0.2 ML CORN OIL 2/WK FOR 4 WK","94%, 60%, 36%, p<0.05 and 90%, 65%, 28%, not significant"
same,"tumour outcome (control, treated, inhibition, significance)","Carcinogen: CIPROFIBRATE, 52214-84-3, Dose [Inhibitor]: 0.5% IN DIET FOR 60 WK (STUDY DURATION: 60 WK), Species: RAT, Strain/Sex: F344/MALE, Target Tissue: Type of Lesion: LIVER: TUMOR, Dose [Carcinogen]: 10 MG/KG/BW IN DIET SIMULTANEOUSLY WITH INHIBITOR FOR 60 WK","22/25 (88%), 12/25 (48%), 45%, p<0.005"
N#C[SeH],"tumour outcome (control, treated, inhibition, significance)","Carcinogen: 7,12-DIMETHYLBENZ[A]ANTHRACENE, 57-97-6, Dose [Inhibitor]: 0, 2 PPM (AS SELENIUM) IN DIET BEGINNING 2 WK PRIOR TO CARCINOGEN DOSE AND CONTINUING FOR DURATION OF STUDY (STUDY DURAT, Species: RAT, Strain/Sex: SPRAGUE-DAWLEY/FEMALE, Target Tissue: Type of Lesion: MAMMARY GLAND: ADENOCARCINOMA, Dose [Carcinogen]: 10 MG ONCE AT 55 D OF AGE","88%, 68%, 23%, not significant"
same,"tumour outcome (control, treated, inhibition, significance)","Carcinogen: 7,12-DIMETHYLBENZ[A]ANTHRACENE, 57-97-6, Dose [Inhibitor]: 0, 3 PPM (AS SELENIUM) IN DIET BEGINNING 2 WK PRIOR TO CARCINOGEN DOSE AND CONTINUING FOR DURATION OF STUDY (STUDY DURAT, Species: RAT, Strain/Sex: SPRAGUE-DAWLEY/FEMALE, Target Tissue: Type of Lesion: MAMMARY GLAND: ADENOCARCINOMA, Dose [Carcinogen]: 10 MG ONCE AT 55 D OF AGE","88%, 44%, 50%, p<0.05"
C#C[C@]1(O)CC[C@H]2[C@@H]3CCc4cc(CC)ccc4[C@H]3CC[C@@]21C (tested in a mixture with another compound),"tumour outcome (control, treated, inhibition, significance)","Carcinogen: 3-METHYLCHOLANTHRENE, 56-49-5, Dose [Inhibitor]: 0, 1/200 OF A PILL CONTAINING 0.25 UG ETHINYLESTRADIOL AND 5 UG LYNESTRENOL 1/D FOR 60 D (STUDY DURATION: 60 D), Species: MOUSE, Strain/Sex: SWISS/FEMALE, Target Tissue: Type of Lesion: UTERINE CERVIX: TUMOR, Dose [Carcinogen]: 300 UG IN BEESWAX IMPREGNATED COTTON THREAD INSERTED INTO CANAL OF UTERINE CERVIX FOR DURATION OF STUDY","2/23 (9%), 1/27 (4%), 56%, not significant"
same,"tumour outcome (control, treated, inhibition, significance)","Carcinogen: 3-METHYLCHOLANTHRENE, 56-49-5, Dose [Inhibitor]: 0, 1/200 OF A PILL CONTAINING 0.25 UG ETHINYLESTRADIOL AND 5 UG LYNESTRENOL 1/D FOR 90 D (STUDY DURATION: 90 D), Species: MOUSE, Strain/Sex: SWISS/FEMALE, Target Tissue: Type of Lesion: UTERINE CERVIX: TUMOR, Dose [Carcinogen]: 300 UG IN BEESWAX IMPREGNATED COTTON THREAD INSERTED INTO CANAL OF UTERINE CERVIX FOR DURATION OF STUDY","6/23 (26%), 4/20 (20%), 23%, not significant"
same,"tumour outcome (control, treated, inhibition, significance)","Carcinogen: 3-METHYLCHOLANTHRENE, 56-49-5, Dose [Inhibitor]: 0, 1/2000 OF A PILL CONTAINING 0.025 UG ETHINYLESTRADIOL AND 0.5 UG OF LYNESTRENOL 1/D FOR 60 D (STUDY DURATION: 60 D), Species: MOUSE, Strain/Sex: SWISS/FEMALE, Target Tissue: Type of Lesion: UTERINE CERVIX: TUMOR, Dose [Carcinogen]: 300 UG IN BEESWAX IMPREGNATED COTTON THREAD INSERTED INTO CANAL OF UTERINE CERVIX FOR DURATION OF STUDY","2/23 (9%), 1/24 (4%), 56%, not significant"
same,"tumour outcome (control, treated, inhibition, significance)","Carcinogen: 3-METHYLCHOLANTHRENE, 56-49-5, Dose [Inhibitor]: 0, 1/2000 OF A PILL CONTAINING 0.025 UG ETHINYLESTRADIOL AND 0.5 UG OF LYNESTRENOL 1/D FOR 90 D (STUDY DURATION: 90 D), Species: MOUSE, Strain/Sex: SWISS/FEMALE, Target Tissue: Type of Lesion: UTERINE CERVIX: TUMOR, Dose [Carcinogen]: 300 UG IN BEESWAX IMPREGNATED COTTON THREAD INSERTED INTO THE CANAL OF THE UTERINE CERVIX FOR THE DURATION OF STUDY","6/23 (26%), 1/31 (3%), 88%, p<0.05"
S=C=Nc1c2ccccc2c2ccc3cccc4ccc1c2c43,outcome,"Carcinogen: BENZO[A]PYRENE, 50-32-8, Dose [Inhibitor]: 0, 5 UMOL IN ACETONE 4 HR PRIOR TO CARCINOGEN DOSE (STUDY DURATION: 20 WK), Route [Inhibitor]: DERMAL, Species: MOUSE, Strain/Sex: STRAIN-A/FEMALE, Target Tissue: Type of Lesion: SKIN: TUMOR, Dose [Carcinogen]: 0.1 UMOL IN ACETONE ONCE, Promoter: 12-O-TETRADECANOYLPHORBOL-13-ACETATE, 16561-29-8","85%, 60%, 18%, not significant at 15 wk; 95%, 90%, 5%, not significant at 20 wk"
